Counter-ions that a name gives are not always drawn. Like-named read-outs stand apart in the source and are kept apart here.
Experiments:
MOR [1] = molecular target: T1, MOR (Rattus norvegicus, UniProt P33535); experiment: competition radioligand binding, rat brain membranes, [3H]DAMGO; conditions: for Ki: rat brain membranes, read-out: opioid receptor binding Ki MOR; for increase in MOR binding affinity vs comparator: rat brain, 17b vs 4b, 16a/b vs 7a/b, 22a/b vs 7a, 7b and 9b, 14a vs 14b
T1 construct: Membranes were prepared from Sprague-Dawley rat brains or guinea-pig brains according to the described procedures; tissue Labortierkunde und Laborgenetik, Medizinische Universität Wien; host or cells: Sprague-Dawley rat brain without cerebella

DOR [2] = molecular target: T2, DOR (Rattus norvegicus, UniProt P33533); experiment: competition radioligand binding, rat brain membranes, [3H][Ile5,6]deltorphin II; conditions: rat brain membranes; read-out: opioid receptor binding Ki DOR
T2 construct: Membranes were prepared from Sprague-Dawley rat brains or guinea-pig brains according to the described procedures; tissue Labortierkunde und Laborgenetik, Medizinische Universität Wien; host or cells: Sprague-Dawley rat brain without cerebella

KOR [3] = molecular target: T3, KOR (Cavia porcellus, UniProt P41144); experiment: competition radioligand binding, guinea-pig brain membranes, [3H]U69,593; conditions: for Ki: guinea-pig brain membranes, read-out: opioid receptor binding Ki KOR
T3 construct: Membranes were prepared from Sprague-Dawley rat brains or guinea-pig brains according to the described procedures; tissue Labortierkunde und Laborgenetik, Medizinische Universität Wien; host or cells: guinea-pig brain without cerebella

MOR [4] = molecular target: T4, MOR (Homo sapiens, UniProt P35372); experiment: [35S]GTPγS binding assay, CHO-hMOR membranes; format: biochemical; conditions: for Emax: read-out: MOR % stim.; for functional profile at MOR (full/partial agonist): full agonist ≥85% of the response to DAMGO
T4 construct: host or cells: CHO (CHO-hMOR)

DOR [5] = molecular target: T5, DOR (Homo sapiens, UniProt P41143); experiment: [35S]GTPγS binding assay, CHO-hDOR membranes; format: biochemical; conditions: for EC50: [35S]GTPγS, CHO human DOR membranes; for Emax: relative to reference full agonist DPDPE, read-out: DOR % stim.; for increased agonist potency at DOR vs MOR: [35S]GTPγS EC50
T5 construct: host or cells: CHO (CHO-hDOR)

KOR [6] = molecular target: T6, KOR (Homo sapiens, UniProt P41145); experiment: [35S]GTPγS binding assay, CHO-hKOR membranes; format: biochemical; conditions: for EC50: [35S]GTPγS, CHO human KOR membranes, read-out: KOR EC50; for Emax: relative to reference full agonist U69,593, read-out: KOR % stim.; for functional profile at KOR (full/partial agonist): partial agonist <85% of the response to U69,593
T6 construct: host or cells: CHO (CHO-hKOR)

male CD1 mice = experiment: acetic acid-induced writhing assay after sc administration; format: in vivo, mouse; conditions: for ED50: Mus musculus, 0.5 h, read-out: ED50 (95% CI), mice, sc, inhibition of writhing 30 min after drug administration
MOR [7] = molecular target: T4, MOR; experiment: competition radioligand binding, CHO cell membranes expressing human MOR, [3H]DAMGO
Protocol: (§1) Membranes from CHO cells expressing human opioid receptors were prepared in 50 mM Tris-HCl buffer (pH 7.7) according to a previously described procedure.[64] Cells expressing human opioid receptors grown at confluence were removed from the culture plates by scraping, homogenized in 50 mM Tris buffer (pH 7.7), using a Polytron homogenizer, then centrifuged once and washed by an additional centrifugation at 27 000g for 15 min, at 4 °C. The final pellet was resuspended in Tris buffer and stored at −80 °C until use. Protein content of brain and cell membrane preparation homogenates was determined by the method of Bradford using bovine serum albumin as the standard.[65]
(§2) Rat brain membranes were incubated with either [^3H]DAMGO (1 nM, 45 min, 35 °C) or [^3H][Ile^5,6]deltorphin II (0.5 nM, 45 min, 35 °C) for labeling MOR or DOR receptors, respectively. Guinea-pig brain membranes were incubated with [^3H]U69,593 (1 nM, 30 min, 30 °C) for labeling KOR. Binding assays with CHO cell membranes were conducted at 25 °C for 60 min using [^3H]DAMGO (1 nM) or [^3H]diprenorphine (0.2 nM) for labeling MOR or DOR, respectively. Nonspecific binding was determined using 10 μM naloxone (rodent brain) or 1–10 μM of the unlabeled counterpart of each radioligand (CHO cells). Reactions were terminated by rapid filtration through Whatman glass fiber GF/C filters. Filters were washed three times with 5 mL of ice-cold 50 mM Tris-HCl buffer (pH 7.4) using a Brandel M24R cell harvester (Gaithersburg, MD). Radioactivity retained on the filters was counted by liquid scintillation counting using a Beckman Coulter LS6500 (Beckman Coulter Inc., Fullerton, CA). All binding experiments were performed in duplicate and repeated at least three times.
(§3) aDetermined in competition radioligand binding assays using CHO cell membranes expressing
(§4) human MOR and DOR. Values represent the mean ± SEM of three independent experiments each

DOR [8] = molecular target: T5, DOR; experiment: competition radioligand binding, CHO cell membranes expressing human DOR, [3H]diprenorphine
Protocol: as §1, §2, §3, §4

[9] = [35S]GTPγS, CHO human MOR membranes, read-out: MOR EC50
[10] = relative to reference full agonist DAMGO

| SMILES | Ki (MOR [1]) [nM] | Ki (DOR [2]) [nM] | Ki (KOR [3]) [nM] | EC50 (MOR [4]; [9]) [nM] | Emax (MOR [4]; [10]) [%] | EC50 (DOR [5]) [nM] | Emax (DOR [5]) [%] | EC50 (KOR [6]) [nM] | Emax (KOR [6]) [%] | ED50 (male CD1 mice) [mg/kg] | Ki (MOR [7]) [nM] | Ki (DOR [8]) [nM] | increased agonist potency at DOR vs MOR (DOR [5]) | functional profile at KOR (full/partial agonist) (KOR [6]) | other results |
| --- | --- | --- | --- | --- | --- | --- | --- | --- | --- | --- | --- | --- | --- | --- | --- |
| CO[C@@]12CCC(N[C@@H](CCC(=O)O)C(=O)O)[C@@H]3Oc4c(O)ccc5c4[C@@]31CCN(C)[C@@H]2C5 (stereo in doubt) [Compound 14a, (2S)-2-[(4,5α-Epoxy-3-hydroxy-14β-methoxy-17-methylmorphinan-6β-yl)-amino]pentanedioic Acid Dihydrochloride] | 1.45 ± 0.09 | 9.03 ± 0.7 | 87.2 ± 4.2 | 3.11 ± 1.32 | 105 ± 3 | 10.8 ± 2.1 | 98 ± 3 | 1170 ± 448 | 68 ± 5 | 0.0361 | 3.29 ± 0.61 | 24 ± 11.8 |  |  | increase in MOR binding affinity vs comparator (MOR [1]): 8 times; increased KOR affinity vs 6β analogue 14b (KOR [3]; guinea-pig brain): 14 times |
| CO[C@@]12CC[C@H](NC(C)C(=O)O)[C@@H]3Oc4c(O)ccc5c4[C@@]31CCN(C)[C@@H]2C5 (stereo in doubt) [Compound 15a, (2S)-2-[(4,5α-Epoxy-3-hydroxy-14β-methoxy-17-methylmorphinan-6α-yl)amino]propanoic Acid Dihydrochloride] |  | 10.4 ± 0.01 | 71.5 ± 9.6 |  | 100 ± 8 | 24.3 ± 5.3 | 106 ± 7 | 254 ± 118 | 67 ± 13 |  |  | 14.9 ± 1.9 |  |  |  |
| CO[C@@]12CC[C@@H](NC(C)C(=O)O)[C@@H]3Oc4c(O)ccc5c4[C@@]31CCN(C)[C@@H]2C5 (stereo in doubt) [Compound 15b, (2S)-2-[(4,5α-Epoxy-3-hydroxy-14β-methoxy-17-methylmorphinan-6β-yl)amino]propanoic Acid Dihydrochloride] |  | 11.3 ± 0.9 | 142 ± 33 |  | 102 ± 9 | 5.46 ± 2.68 | 106 ± 6 | 1000 ± 192 | 86 ± 2 |  |  | 11.5 ± 2.6 | 2–4 times | full agonists |  |
| CO[C@@]12CC[C@H](NCC(=O)O)[C@@H]3Oc4c(O)ccc5c4[C@@]31CCN(C)[C@@H]2C5 [Compound 2a] |  |  |  | 1.16 ± 0.59 | 99 ± 4 |  |  | 399 ± 119 | 87 ± 4 | 0.0357 | 0.79 ± 0.08 | 18.2 ± 6.1 |  | full agonists |  |
| CO[C@@]12CC[C@H](N[C@@H](Cc3ccccc3)C(=O)O)[C@@H]3Oc4c(O)ccc5c4[C@@]31CCN(C)[C@@H]2C5 [Compound 4a] |  |  |  | 0.38 ± 0.19 | 93 ± 8 | 0.39 ± 0.19 | 102 ± 2 | 219 ± 2 | 39 ± 12 | 0.0311 | 0.81 ± 0.2 | 3.61 ± 1.2 |  | partial agonist | EC50 (MOR [4]): < 1 nM; increased antinociceptive potency vs comparator (male CD1 mice; writhing assay, 3a vs 3b, 4a vs 4b, 16b vs 7a (so in the source)): 19 times |
| CO[C@@]12CC[C@@H](N[C@@H](Cc3ccccc3)C(=O)O)[C@@H]3Oc4c(O)ccc5c4[C@@]31CCN(C)[C@@H]2C5 [Compound 4b] |  |  |  | 6.76 ± 3.16 | 99 | 0.48 ± 0.16 | 94 ± 8 | 1170 ± 505 | 81 ± 9 | 0.579 | 4.15 ± 0.47 | 1.12 ± 0.23 | 14 times |  | functional profile at MOR (full/partial agonist) (MOR [4]): full agonist; MOR % stim. (MOR [4]; [10]): 99 ± 8% |
| CO[C@@]12CC[C@@H](N[C@@H](CCC(=O)O)C(=O)O)[C@@H]3Oc4c(O)ccc5c4[C@@]31CCN(C)[C@@H]2C5.Cl.Cl [Compound 14b, (2S)-2-[(4,5α-Epoxy-3-hydroxy-14β-methoxy-17-methylmorphinan-6β-yl)amino]pentanedioic Acid Dihydrochloride] | 11.6 ± 0.7 | 7.64 ± 0.64 | 1250 ± 70 | 12.7 ± 4.7 | 98 ± 4 | 4.6 ± 1.79 | 101 ± 3 | 2230 ± 238 | 76 ± 0.7 |  | 28.7 ± 7.9 | 18 ± 3.5 | 2–4 times |  |  |
| CO[C@@]12CC[C@H](N[C@H](Cc3ccccc3)C(=O)O)[C@@H]3Oc4c(O)ccc5c4[C@@]31CCN(C)[C@@H]2C5 [Compound 17a, (2R)-2-[(4,5α-Epoxy-3-hydroxy-14β-methoxy-17-methyl-morphinan-6α-yl)-amino]-3-phenylpropionic Acid Dihydrochloride] | 0.61 ± 0.01 | 3.69 ± 0.59 | 76.4 ± 9.3 | 0.77 ± 0.24 | 96 ± 4 | 8.36 ± 0.28 | 95 ± 10 | 215 ± 32 | 80 ± 11 | < 0.02 | 0.85 ± 0.01 | 5.26 ± 0.42 |  | full agonists | EC50 (MOR [4]): < 1 nM; ED50 (95% CI) (male CD1 mice; mice, inhibition of writhing 30 min after drug administration): 18.1 (8.37–39.2) μg/kg |
| CO[C@@]12CC[C@@H](N[C@H](C(=O)N[C@@H](Cc3ccc(O)cc3)C(=O)O)C(C)C)[C@@H]3Oc4c(O)ccc5c4[C@@]31CCN(C)[C@@H]2C5 [Compound 22b, (2S)-2-[[(4,5α-Epoxy-3-hydroxy-14β-methoxy-17-methylmorphinan-6β-yl)amino]-(2S)-3-methylbutyrylamino]-3-(4-hydroxyphenyl)propionic Acid] | 0.44 ± 0.01 | 1.38 ± 0.22 | 390 ± 49 | 0.16 ± 0.06 | ~70 | 1.56 ± 0.83 | 89 ± 7 | 1880 ± 594 | 63 ± 0.1 |  |  |  |  |  | KOR/MOR selectivity ratio (MOR [1]; from Ki, guinea-pig (KOR) and rat (MOR) brain): 886; increase in MOR binding affinity vs comparator (MOR [1]): 4 to 7 times; lower KOR affinity vs 6α analogue 22a (KOR [3]; guinea-pig brain): about 6 times; increased MOR potency than 1 (MOR [4]; [35S]GTPγS EC50): 24 times; selectivity for MOR over DOR (MOR [4]; [35S]GTPγS EC50): 10 times; functional profile at MOR (full/partial agonist) (MOR [4]): partial agonists; functional profile at DOR (full/partial agonist) (DOR [5]; full agonist ≥85% of the response to DPDPE): full agonists; Ki (MOR [7]; CHO cell membranes expressing human MOR, read-out: Ki MOR): 0.64 ± 0.07 nM; Ki (DOR [8]; CHO cell membranes expressing human DOR, read-out: Ki DOR): 1.39 ± 0.13 nM |

Source: article PMC6348443 (Journal of Medicinal Chemistry, 2018)
